Measured values: paper PMC11610403 (Journal of thrombosis and haemostasis : JTH, 2024)

Experiments:
vascular leakage = settings: given in vivo to mice in the absence of APC or any P1 peptide; cited from earlier work
[1] = tested on: caspase-1 activity in activated THP-1 cells; test: Caspase-1 activity assay in stimulated THP-1 cells; format: cell-based, human; settings: P3 peptide in the presence of P1-47-66 (1.0 nM), Figure 2A

| Substance | vascular leakage in mice (vascular leakage) | synergism with P1-47-66 for reducing caspase-1 activity [1] |
| --- | --- | --- |
| P3-42-65: PAR3-derived peptide comprising residues 42-65 (GAPPNSFEEFPFSALEGWTGATIT; UniProt O00254 42-65, looked up, fragment) | reduce vascular leakage | reduces caspase-1 activity synergistically |
| P3-51-65: PAR3-derived peptide, residues 51-65 (FPFSALEGWTGATIT; UniProt O00254 51-65, looked up, fragment) |  | similarly showed synergism |
